From patent publication US20240417435A1, “DEFENSIN-DERIVED PEPTIDE WITH ANTIBACTERIAL ACTIVITY ALSO AGAINST MULTI-ANTIBIOTIC-RESISTANT BACTERIA” (priority 2021, published 2024)
In brackets after ≈: the same amount, converted by molar mass. Where a SMILES comes first, the peptide text is derived from it.

Legend:
MRSA strain 1 = type: cell-based, Staphylococcus aureus
Experimental: (§1) The antimicrobial activity of peptide γ2 was evaluated versus Pseudomonas aeruginosa ATCC 27853, Escherichia coli ATCC 13762 and Staphylococcus aureus ATCC 6538, and versus multidrug-resistant (MDR) clinical isolates of Methicillin-Resistant Staphylococcus aureus (MRSA), extended-spectrum β-lactamase (ESBL)-producing E. coli, P. aeruginosa and Acinetobacter baumannii complex. The isolates were identified by mass spectrometry using the MALDI (matrix-assisted laser desorption/ionisation) mass spectrometer and the biochemical phenotyping method in a VITEKR 2 bioMérieux system (bioMérieux Italia S.p.a., Bagno a Ripoli, Florence, Italy), according to the manufacturer's instructions. The antibiotic susceptibility profile was evaluated with the VITEKR 2 bioMérieux System. The microorganisms were cultured in broth and agar at 37° C. The media used were BD Brain Heart Infusion broth (BHI) (BD, Franklin Lakes, NJ, USA) and BHI agar (OXOID, Basingstoke, Hampshire, UK), BD Trypticase Soy agar with 5% sheep's blood and MacConkey agar (OXOID, Basingstoke, Hampshire, UK). The isolates were stored frozen at −80° C. in BHI broth supplemented with 10% (v/v) glycerol (Carlo Erba Reagents, Milan, Italy) until use, and the work cultures were activated in the respective broths at 37° C. for 15-18 h.
(§2) Assays of the antibacterial activity of peptide γ2, in both reduced and oxidised form, were conducted against P. aeruginosa ATCC 27853, E. coli ATCC 13762, S. aureus ATCC 6538 and MDR clinical isolates. The strains were cultured under aerobic conditions in BHI broth at 37° C. and incubated with peptide γ2 for 2 hours at 37° C. Various concentrations of peptide were used, ranging from 1 μM to 128 μM. Each test was conducted in triplicate with three independent cultures. The minimum inhibitory concentration (MIC) and the minimum bactericidal concentration (MBC) of the peptide were determined with a modified version of the Clinical and Laboratory Standards Institute broth microdilution assay, using a final inoculum concentration of 10^5 CFU/ml, as previously described (Scudiero O et al., Antimicrob Agents Chemother 2010; 54:2312-22; Scudiero O et al. Antimicrob Ag Chemother 2013; 57:1701-8).
(§3) The MIC is indicated by the concentration interval, which comprise the upper growth limit and the first concentration which could not support visible bacterial growth after incubation. The MBC was defined as the lowest concentration at which no viable colonies were observed. The peptide concentrations were 128.0, 64.0, 32.0, 16.0, 8.0, 4.0, 2.0 and 1 μM. For the time-kill studies against the ATCC and MDR strains, the bacteria were cultured in BHI broth until the late log growth phase at 37° C. The bacterial suspensions, containing about 10^6 CFU/ml (adjusted by the spectrophotometer to OD600 nm), were diluted 1:100 in PBS1× and then incubated at 37° C. with or without the peptide, selected at concentrations corresponding to 1, 2 and 4×MIC (as determined above). At baseline and 1, 2, 3 and 5 hours after incubation, a portion of each sample was harvested, diluted in series in PBS1× and seeded on BHI agar. The plates were incubated for […] at 37° C., and the viable bacteria count was conducted by the CFU method. All the data were expressed as mean±SD of three independent experiments.

MRSA strain 2 = type: cell-based, Staphylococcus aureus
Experimental: as §1, §2, §3

MRSA strain 3 = type: cell-based, Staphylococcus aureus
Experimental: as §1, §2, §3

S. aureus ATCC 6538 = type: cell-based, Staphylococcus aureus
Experimental: as §1, §2, §3

P. aeruginosa ATCC 27853 = type: cell-based, Pseudomonas aeruginosa
Experimental: as §1, §2, §3

[1] = test system: P. aeruginosa MDR strain 1; type: cell-based, Pseudomonas aeruginosa
Experimental: as §1, §2, §3

[2] = test system: P. aeruginosa MDR strain 2; type: cell-based, Pseudomonas aeruginosa
Experimental: as §1, §2, §3

[3] = test system: A. baumannii MDR strain 1; type: cell-based, Acinetobacter baumannii complex
Experimental: as §1, §2, §3

[4] = test system: A. baumannii MDR strain 2; type: cell-based, Acinetobacter baumannii complex
Experimental: as §1, §2, §3

MRSA strains = test: In vitro time-kill kinetics assay; type: cell-based, Staphylococcus aureus; settings: all MRSA strains; peptide at MIC; after 2 hours' incubation, throughout observation period
Experimental: as §3

[5] = test system: S. aureus ATCC 6538 (ATCC reference strain); test: In vitro time-kill kinetics assay; type: cell-based, Staphylococcus aureus; settings: peptide at MIC, after 2 hours' incubation
Experimental: as §3

[6] = test system: E. coli ATCC 13762 (ATCC reference strain); test: In vitro time-kill kinetics assay; type: cell-based, Escherichia coli; settings: peptide at MIC, after 2 hours' incubation
Experimental: as §3

ESBL strains of E. coli = test: In vitro time-kill kinetics assay; type: cell-based, Escherichia coli; settings: peptide at MIC, after 2 hours' incubation, throughout observation period
Experimental: as §3

A. baumannii MDR 2 = test: In vitro time-kill kinetics assay; type: cell-based, Acinetobacter baumannii complex
Experimental: as §3

MIC (MRSA strain 1): 1 µM (≈ 2.46 µg/mL) | MIC (MRSA strain 2): 4 to 8 µM | MIC (MRSA strain 3): 1 µM (≈ 2.46 µg/mL) | MIC [2]: 1 µM (≈ 2.46 µg/mL)
Compound: CC[C@H](C)[C@H](NC(=O)[C@H](CCC(N)=O)NC(=O)[C@H](CCCNC(=N)N)NC(=O)[C@H](CCCNC(=N)N)NC(=O)[C@H](CCCCN)NC(=O)[C@@H]1CCCN1C(=O)[C@H](CC(C)C)NC(=O)[C@H](CS)NC(C)=O)C(=O)NCC(=O)N[C@@H](CCCCN)C(=O)N[C@@H](CO)C(=O)N[C@@H](CO)C(=O)N[C@H](C(=O)N[C@@H](CCCNC(=N)N)C(=O)NCC(=O)N[C@@H](CCCNC(=N)N)C(=O)N[C@@H](CCCCN)C(=O)N[C@@H](CO)C(=O)N[C@@H](CS)C(=O)N[C@@H](CCCCN)C(=O)N[C@@H](CCCCN)C(N)=O)[C@@H](C)O [Reduced peptide γ2] (Ac-CLPKRRQIGKSSTRGRKSCKK-NH2)
MBC (MRSA strain 1): 1 µM (≈ 2.46 µg/mL) | MBC (MRSA strain 2): 16 µM (≈ 39.3 µg/mL) | MBC (MRSA strain 3): 4 µM (≈ 9.84 µg/mL) | MBC (S. aureus ATCC 6538): 1 to 2 µM | MBC (P. aeruginosa ATCC 27853): 1 µM (≈ 2.46 µg/mL) | MBC [1]: 64 µM (≈ 157 µg/mL) | MBC [2]: 1 µM (≈ 2.46 µg/mL) | MBC [3]: 64 µM (≈ 157 µg/mL) | MIC ([4]; A. baumannii MDR strain 2): 1 µM (≈ 2.46 µg/mL) | MBC ([4]; MDR strain 2): 1 µM (≈ 2.46 µg/mL) | growth in time-kill assay (MRSA strains): total reduction in growth | growth in time-kill assay [5]: total reduction in growth | growth in time-kill assay [6]: total reduction in growth | growth in time-kill assay (ESBL strains of E. coli): total reduction in growth | growth and viability in time-kill assay (A. baumannii MDR 2; after 2 hours' treatment): great reduction in growth and viability | growth and viability in time-kill assay (A. baumannii MDR 2; longer observation times, even at 4×MIC): slight recovery of growth and viability
